Values joined by “and” are separate entries in the source; they are usually repeats but may differ in a detail not shown here. Identical values can stand only once.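 96-well plates; 48 h exposure; 5 concentrations. Endpoints by linear interpolation between flanking doses. Not reached: highest tested concentration assigned. GI50 = concentration required for 50% inhibition of growth. TGI marks complete inhibition of growth.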
Assays:
Assay in all cases: NCI tumour cell line growth inhibition, 48 h
[1] = test system: UACC-62 melanoma
[2] = test system: OVCAR-3 ovarian
[3] = test system: DU-145 prostate
[4] = test system: SR leukemia
[5] = test system: MOLT-4 leukemia
[6] = test system: DMS 273 small cell lung
[7] = test system: SF-295 CNS
[8] = test system: NCI-H460 lung
[9] = test system: CCRF-CEM leukemia
[10] = test system: BT-549 breast
[11] = test system: SN12C renal
[12] = test system: M14 melanoma
[13] = test system: XF 498 CNS
[14] = test system: SNB-19 CNS
[15] = test system: U251 CNS
[16] = test system: EKVX NSCLC
[17] = test system: SF-268 CNS
[18] = test system: SW-620 colon
[19] = test system: SF-539 CNS
[20] = test system: HCT-15 colon
[21] = test system: DLD-1 colon
[22] = test system: HCC-2998 colon
[23] = test system: NCI-H522 lung
[24] = test system: MALME-3M melanoma
[25] = test system: OVCAR-8 ovarian
[26] = test system: NCI/ADR-RES ovarian
[27] = test system: M19-MEL melanoma
[28] = test system: HL-60(TB) leukemia
[29] = test system: HOP-18 NSCLC
[30] = test system: CAKI-1 renal
[31] = test system: ACHN renal
[32] = test system: MCF7 breast
[33] = test system: HOP-62 NSCLC
[34] = test system: HT29 colon
[35] = test system: SNB-75 CNS
[36] = test system: HS 578T breast
[37] = test system: 786-0 renal
[38] = test system: PC-3 prostate
[39] = test system: MDA-N
[40] = test system: OVCAR-4 ovarian
[41] = test system: OVCAR-5 ovarian
[42] = test system: IGROV1 ovarian
[43] = test system: SK-MEL-28 melanoma
[44] = test system: SK-MEL-2 melanoma
[45] = test system: RPMI-8226 leukemia
[46] = test system: A549 NSCLC
[47] = test system: NCI-H226 lung
[48] = test system: COLO 205 colon
[49] = test system: SK-MEL-5 melanoma
[50] = test system: HCT-116 colon
[51] = test system: T-47D breast
[52] = test system: KM12 colon
[53] = test system: UO-31 renal
[54] = test system: KM20L2 colon
[55] = test system: SN12K1 renal
[56] = test system: K-562 leukemia
[57] = test system: P388 leukemia
[58] = test system: SK-OV-3 ovarian
[59] = test system: DMS 114 small cell lung
[60] = test system: UACC-257 melanoma
[61] = test system: TK-10 renal
[62] = test system: HOP-92 NSCLC
[63] = test system: MDA-MB-435
[64] = test system: MDA-MB-231 breast
[65] = test system: SNB-78 CNS
[66] = test system: P388/ADR leukemia
[67] = test system: RXF 393 renal
[68] = test system: A498 renal
[69] = test system: LOX IMVI melanoma
[70] = test system: NCI-H23 lung
[71] = test system: RXF-631 renal
[72] = test system: LXFL 529 NSCLC

SMILES: CCN(CC)CCOC(=O)Cc1cccc2c(=O)cc(-c3ccccc3)oc12
- GI50 [1]: 39.5 µM
- TGI [1]: 62.5 µM and > 154 µM
- GI50 [2]: > 43.4 µM
- TGI [2]: 62.5 µM and > 76.3 µM
- TGI [3]: 54.6 µM
- TGI [4]: 37.9 µM
- GI50 [5]: 3.37 µM
- TGI [5]: 62.5 µM
- TGI [6]: > 625 µM
- GI50 [7]: 19.2 µM
- TGI [7]: 62.5 µM and > 141 µM
- GI50 [8]: 36.4 µM
- TGI [8]: 62.5 µM and > 111 µM
- GI50 [9]: 336 µM
- TGI [10]: 61.7 µM
- GI50 [11]: 92.8 µM
- TGI [11]: 62.5 µM and > 320 µM
- TGI [12]: 62.5 µM
- TGI [13]: 82.6 µM
- GI50 [14]: 112 µM
- TGI [14]: 62.5 µM and > 211 µM
- GI50 [15]: 57.9 µM
- TGI [15]: 62.5 µM and > 121 µM
- GI50 [16]: 25.2 µM
- TGI [16]: 62.5 µM
- TGI [17]: 62.5 µM and > 165 µM
- GI50 [18]: 123 µM
- TGI [18]: 62.5 µM and > 251 µM
- GI50 [19]: 58.6 µM
- TGI [19]: 62.5 µM and > 179 µM
- GI50 [20]: 82.5 µM
- TGI [20]: 62.5 µM and > 216 µM
- TGI [21]: > 195 µM
- GI50 [22]: 34.1 µM
- TGI [22]: 62.5 µM and > 102 µM
- GI50 [23]: 72.8 µM
- TGI [23]: 62.5 µM and > 154 µM
- GI50 [24]: 64.7 µM
- TGI [24]: 62.5 µM and 165 µM
- TGI [25]: 62.5 µM and > 254 µM
- GI50 [26]: 123 µM
- TGI [26]: 62.5 µM and > 283 µM
- TGI [27]: > 223 µM
- GI50 [28]: 3.86 µM
- TGI [28]: 44.6 µM
- TGI [29]: > 126 µM
- GI50 [30]: 252 µM
- TGI [31]: 62.5 µM
- GI50 [32]: 46.9 µM
- TGI [32]: 62.5 µM and > 216 µM
- GI50 [33]: 25.9 µM
- TGI [33]: 62.5 µM and > 144 µM
- GI50 [34]: 530 µM
- GI50 [35]: 13 µM
- TGI [35]: 50.1 µM and 126 µM
- TGI [36]: 62.5 µM
- TGI [37]: 62.5 µM
- TGI [38]: 62.5 µM
- TGI [39]: 62.5 µM
- GI50 [40]: 18.3 µM
- TGI [40]: 62.5 µM
- GI50 [41]: 137 µM
- TGI [41]: 62.5 µM and > 197 µM
- GI50 [42]: 82.9 µM
- TGI [42]: 62.5 µM and > 216 µM
- GI50 [43]: 115 µM
- TGI [43]: 62.5 µM and > 237 µM
- GI50 [44]: 52.9 µM
- TGI [44]: 62.5 µM and > 212 µM
- TGI [45]: 51 µM and > 224 µM
- GI50 [46]: 57.4 µM
- TGI [46]: 62.5 µM and > 209 µM
- GI50 [47]: 50.7 µM
- TGI [47]: 62.5 µM and > 129 µM
- GI50 [48]: 439 µM
- GI50 [49]: 81.5 µM
- TGI [49]: 62.5 µM and > 186 µM
- GI50 [50]: 85.1 µM
- TGI [50]: 62.5 µM and > 153 µM
- TGI [51]: 50.2 µM
- GI50 [52]: 83.5 µM
- TGI [52]: 62.5 µM and > 165 µM
- GI50 [53]: 295 µM
- TGI [54]: > 214 µM
- TGI [55]: 127 µM
- GI50 [56]: 406 µM
- TGI [57]: > 625 µM
- TGI [58]: 62.5 µM and > 108 µM
- TGI [59]: 137 µM
- GI50 [60]: 67 µM
- TGI [60]: 62.5 µM and > 154 µM
- TGI [61]: 52.5 µM
- GI50 [62]: 8.02 µM
- TGI [62]: 42.6 µM and 82.5 µM
- TGI [63]: 62.5 µM
- TGI [64]: 57.2 µM
- TGI [65]: > 175 µM
- TGI [66]: > 625 µM
- GI50 [67]: 52.6 µM
- TGI [67]: 58.7 µM and > 144 µM
- GI50 [68]: 40.2 µM
- TGI [68]: 62.5 µM and > 145 µM
- GI50 [69]: 45.3 µM
- TGI [69]: 35.1 µM and > 240 µM
- GI50 [70]: 58.7 µM
- TGI [70]: 62.5 µM and > 147 µM

SMILES: Cc1ccc(C2=C(c3ccc(C)cc3)C(c3ccc(C)cc3)=C(c3ccc(C)cc3)C2=O)cc1
- TGI [4]: > 100 µM
- TGI [5]: > 100 µM
- TGI [7]: > 100 µM
- TGI [8]: > 100 µM
- TGI [9]: > 100 µM
- TGI [11]: > 100 µM
- TGI [12]: > 100 µM
- TGI [13]: > 100 µM
- TGI [14]: > 100 µM
- TGI [15]: > 100 µM
- TGI [16]: > 100 µM
- TGI [17]: > 100 µM
- TGI [18]: > 100 µM
- TGI [19]: > 100 µM
- TGI [20]: > 100 µM
- TGI [21]: > 100 µM
- TGI [23]: > 100 µM
- TGI [71]: > 100 µM
- TGI [24]: > 100 µM
- TGI [25]: > 100 µM
- TGI [27]: > 100 µM
- TGI [29]: > 100 µM
- TGI [31]: > 100 µM
- TGI [33]: > 100 µM
- TGI [34]: > 100 µM
- TGI [35]: > 100 µM
- TGI [37]: > 100 µM
- TGI [41]: > 100 µM
- TGI [42]: > 100 µM
- TGI [43]: > 100 µM
- TGI [44]: > 100 µM
- TGI [45]: > 100 µM
- TGI [46]: > 100 µM
- TGI [47]: > 100 µM
- TGI [49]: > 100 µM
- TGI [50]: > 100 µM
- TGI [52]: > 100 µM
- TGI [53]: > 100 µM
- TGI [54]: > 100 µM
- TGI [56]: > 100 µM
- TGI [58]: > 100 µM
- TGI [60]: > 100 µM
- TGI [61]: > 100 µM
- TGI [65]: > 100 µM
- TGI [67]: > 100 µM
- TGI [68]: > 100 µM
- TGI [72]: > 100 µM
- TGI [70]: > 100 µM
